Reference: publication PMC2792043 (PLoS ONE, 2009)
Converted amounts (≈) assume the structure as drawn. “And” between values parts separate entries of the source, which are not always exact repeats. Equal entries are not always repeated. Structures can show the parent of a compound that is named as a salt.

Assays:
influenza A PR8 virus [1] = assay type: cell-based, Influenza A/Puerto Rico/8/34 (H1N1)
NA activity = assay type: biochemical
NMRI mice = settings: mouse, in vivo; cited from earlier work
influenza A or B viruses = assay type: cell-based
influenza A PR8 virus [2] = assay type: cell-based, Influenza A/Puerto Rico/8/34 (H1N1); remark: listed apart in the source
[3] = target: NA from influenza NC virus (Influenza A virus, UniProt Q7TG96); assay type: biochemical; settings: read-out: IC50 NA activity
[4] = test system: influenza A strains PR8, NY or NC; assay type: cell-based
influenza A PR8 virus [5] = assay type: cell-based, Influenza A/Puerto Rico/8/34 (H1N1); remark: listed apart in the source
recombinant N4 protein = recombinant N4 protein (Influenza A virus, UniProt Q6XV43); test: biochemical
influenza A PR8 virus [6] = assay type: cell-based
[7] = test system: influenza A and B viruses; assay type: cell-based
in vitro = settings: pH 7.2
influenza A NC virus = assay type: cell-based
mice = settings: mouse, in vivo; cited from earlier work
influenza A PR8 virus [8] = test: microbe, parasite or virus in culture; assay type: cell-based; settings: PR8, MDCK, 48 h, read-out: minimum effective dose required to protect 50% of cells (EC50)
hamsters = settings: hamster, in vivo; cited from earlier work
influenza A NY virus = assay type: cell-based

Compound: N-acetyl-2,3-dehydro-2-deoxyneuraminic acid [NAA]
- Virus yield, Cells (influenza A PR8 virus [1]): 6.2×10^6 PFU/ml
- Virus yield, Medium (influenza A PR8 virus [1]): 4.7×10^6 PFU/ml
- inhibition of NA activity (NA activity): inhibited NA activity with very low IC50 values

Compound: O=C(O)C1=CC(=C(c2ccc(O)c(C(=O)O)c2)c2ccc(O)c(C(=O)O)c2)C=CC1=O [ATA, Aurintricarboxylic acid]
- LD50 (NMRI mice): 340 mg/kg
- median life span (NMRI mice): 18 days
- Virus yield, Cells (influenza A PR8 virus [1]): 5×10^4 PFU/ml
- Virus yield, Medium (influenza A PR8 virus [1]): 1.3×10^4 PFU/ml
- magnitude of inhibition, production of infectious viral particles (influenza A PR8 virus [1]): at least 3 logs
- number and size of plaques (influenza A or B viruses): reduced both the number and size of plaques
- viral NP RNA level (influenza A PR8 virus [2]): substantial reduction in viral NP RNA
- IC50 [3]: 39.3 µM
- protection from virus-induced CPE, prophylactic exposure [4]: did not protect cells from virus-induced CPE
- protection of infected MDCK cells (neutral red uptake) [4]: significantly protected MDCK cells from influenza infection
- viral aggregation by electron microscopy (influenza A PR8 virus [5]): induce viral aggregation on the cell surface
- IC50 (recombinant N4 protein): 2.37 µM
- reduction of virus abundance in medium (influenza A PR8 virus [6]): 93% and 95%
- plaques after pre-incubation of virus with ATA [7]: reduced the number of plaques
- CC50 at 48 h (in vitro): 577 µg/mL (≈ 1370 µM)
- reduction of virus abundance in medium (influenza A NC virus): 86% and 94%
- single dose tolerated well (mice): ≤ 4 mg/kg
- EC50 (influenza A PR8 virus [8]): 6.5 µg/mL (≈ 15.4 µM)
- well tolerated infusion dose (hamsters): up to 1 mg/kg/hour
- reduction of virus abundance in medium (influenza A NY virus): 72% and 81%

Compound: NC12CC3CC(CC(C3)C1)C2 [AH, amantadine hydrochloride]
- Virus yield, Cells (influenza A PR8 virus [1]): 4.7×10^5 PFU/ml
- Virus yield, Medium (influenza A PR8 virus [1]): 3×10^5 PFU/ml
- inhibition of NA activity (NA activity): no inhibition
